The source made the active and inactive calls. No rule for the calls is given here.
Tested on: GENE-TOX genotoxicity assays, various organisms and cells
Assay: GENE-TOX mutagenicity studies
Settings: for call: Assay Type: In vivo carcinogenicity studies
[1] = Species/Cell Type: Escherichia coli polA (W3119 vs P3478), Assay Type: Rec-assay, DNA effects (bacterial DNA repair), Assay Code: RE1+, Evaluation Type: Evaluation A (Pre-1980)
[2] = Species/Cell Type: Mouse, Sex: Female, Assay Type: Spot test, gene mutation, Assay Code: MST+, Evaluation Type: Evaluation A (Pre-1980)
[3] = Species/Cell Type: Mouse, Sex: Male, Assay Type: Sperm morphology, Assay Code: SPI+, Evaluation Type: Evaluation A (Pre-1980)
[4] = Species/Cell Type: Saccharomyces cerevisiae, Assay Type: Mitotic recombination or gene conversion, Assay Code: YEC+, Evaluation Type: Evaluation A (Pre-1980)
[5] = Species/Cell Type: Saccharomyces cerevisiae, Assay Type: Mitotic recombination or gene conversion, Assay Code: YEH+, Evaluation Type: Evaluation A (Pre-1980)
[6] = Species/Cell Type: Saccharomyces cerevisiae, Assay Type: Reverse gene mutation, Assay Code: YER+, Evaluation Type: Evaluation A (Pre-1980)
[7] = Species/Cell Type: Salmonella typhimurium (one or more of the five standard strains: TA98, TA100, TA1535, TA1537, and TA1538), Assay Type: Histidine reverse gene mutation, Ames assay, Assay Code: SAL+, Evaluation Type: Evaluation A (Pre-1980)

COS(C)(=O)=O
mutagenic call (Species/Cell Type: Arabidopsis species, Assay Type: Gene mutation, Assay Code: ARM+, Evaluation Type: Evaluation A (Pre-1980)): active; positive | mutagenic call (Species/Cell Type: Aspergillus nidulans, Assay Type: Reverse gene mutation, Assay Code: ASR+, Evaluation Type: Evaluation A (Pre-1980)): active; positive | mutagenic call (Species/Cell Type: Chinese hamster lung (V79) cells, Assay Type: Forward gene mutation at the HPRT or ouabain locus, Assay Code: V79+, Evaluation Type: Evaluation A (Pre-1980)): active; positive | mutagenic call (Species/Cell Type: Chinese hamster ovary (CHO) cells, Assay Type: Forward gene mutation at the HPRT locus, Assay Code: CHO+D, Dose Response: With dose response, Evaluation Type: Evaluation A (Pre-1980)): active; positive | mutagenic call (Species/Cell Type: Drosophila melanogaster, Assay Type: Sex-linked recessive lethal gene mutation, Assay Code: SRL+, Evaluation Type: Evaluation A (Pre-1980)): active; positive | mutagenic call (Species/Cell Type: Drosophila melanogaster, Sex: Male, Assay Type: Heritable translocation test, chromosome aberrations, Assay Code: DHT+, Evaluation Type: Evaluation A (Pre-1980)): active; positive | mutagenic call (Species/Cell Type: Escherichia coli WP2, Assay Type: Tryptophan reverse gene mutation, Assay Code: WP2+D, Dose Response: With dose response, Evaluation Type: Evaluation A (Pre-1980)): active; positive | mutagenic call (Species/Cell Type: Escherichia coli WP2 UVRA, Assay Type: Tryptophan reverse gene mutation, Assay Code: WPU+D, Dose Response: With dose response, Evaluation Type: Evaluation A (Pre-1980)): active; positive | mutagenic call [1]: active; positive | mutagenic call (Species/Cell Type: Escherichia coli, Saccharomyces cerevisiae, Neurospora crassa, human lymphoid cells, Assay Type: Forward and reverse gene mutation, lethal mutation, mitotic recombination and gene conversion, chromosome effects, DNA e, Assay Code: HM9+, Evaluation Type: Evaluation A (Pre-1980)): active; positive | mutagenic call (Species/Cell Type: F1 mouse, Sex: Male, Assay Type: Sperm morphology, Assay Code: SPFT, Evaluation Type: Evaluation A (Pre-1980)): no conclusion | mutagenic call (Species/Cell Type: Glycine max (soybean), Assay Type: Gene mutation, Assay Code: GLM+, Evaluation Type: Evaluation A (Pre-1980)): active; positive | mutagenic call (Species/Cell Type: Hordeum vulgare (barley), Assay Type: Chromosome aberrations, Assay Code: HOC+, Evaluation Type: Evaluation A (Pre-1980)): active; positive | mutagenic call (Species/Cell Type: Hordeum vulgare (barley), Assay Type: Gene mutation, Assay Code: HOM+D, Dose Response: With dose response, Evaluation Type: Evaluation A (Pre-1980)): active; positive | mutagenic call (Species/Cell Type: Human diploid fibroblasts, Assay Type: Unscheduled DNA synthesis (UDS) in vitro, DNA effects, Assay Code: UDH+D, Dose Response: With dose response, Evaluation Type: Evaluation A (Pre-1980)): active; positive | mutagenic call (Species/Cell Type: Human lymphocytes or leukocytes, Assay Type: Chromosome aberrations in vivo, Assay Code: CY8+, Evaluation Type: Evaluation A (Pre-1980)): active; positive | mutagenic call (Species/Cell Type: Human lymphocytes, Assay Type: Micronucleus test in vitro, chromosome aberrations, Assay Code: MN7+, Evaluation Type: Evaluation A (Pre-1980)): active; positive | mutagenic call (Species/Cell Type: Human lymphocytes, Assay Type: Sister-chromatid exchange (SCE) in vitro, Assay Code: SCL+, Evaluation Type: Evaluation A (Pre-1980)): active; positive | mutagenic call (Species/Cell Type: Human, Assay Type: Sister-chromatid exchange (SCE) in vitro, Assay Code: SC1+D, Dose Response: With dose response, Evaluation Type: Evaluation A (Pre-1980)): active; positive | mutagenic call (Species/Cell Type: Mammalian germ cells, Sex: Male, Assay Type: Chromosome aberrations in vivo, Assay Code: CY9+, Evaluation Type: Evaluation A (Pre-1980)): active; positive | mutagenic call (Species/Cell Type: Mammalian oocytes or early embryo, Assay Type: Chromosome aberrations in vivo, Assay Code: CYO+D, Dose Response: With dose response, Evaluation Type: Evaluation A (Pre-1980)): active; positive | mutagenic call (Species/Cell Type: Mammalian polychromatic erythrocytes, Assay Type: Micronucleus test, chromosome aberrations, Assay Code: MNT+, Evaluation Type: Evaluation A (Pre-1980)): active; positive | mutagenic call (Species/Cell Type: Mouse germ cells, Sex: Male, Assay Type: Unscheduled DNA synthesis (UDS) in vivo, DNA effects, Assay Code: UDT+, Evaluation Type: Evaluation A (Pre-1980)): active; positive | mutagenic call (Species/Cell Type: Mouse lymphoma (L5178Y) cells, Assay Type: Forward gene mutation at the thymidine kinase (TK) locus, chromosome aberrations, Assay Code: L51+, Evaluation Type: Evaluation A (Pre-1980)): active; positive | mutagenic call [2]: active; positive | mutagenic call (Species/Cell Type: Mouse, Sex: Male, Assay Type: Heritable translocation test, chromosome aberrations, Assay Code: HTT+, Evaluation Type: Evaluation A (Pre-1980)): active; positive | mutagenic call (Species/Cell Type: Mouse, Sex: Male, Assay Type: Specific locus test, gene mutation, Assay Code: SLT+, Evaluation Type: Evaluation A (Pre-1980)): active; positive | mutagenic call [3]: active; positive | mutagenic call (Species/Cell Type: Neurospora crassa, Assay Type: Forward gene mutation, Assay Code: NEF+, Evaluation Type: Evaluation A (Pre-1980)): active; positive | call (Species/Cell Type: Nonhuman, Assay Code: CCG+, Evaluation Type: Evaluation A (Pre-1980)): active; positive | mutagenic call (Species/Cell Type: Nonhuman, Assay Type: Sister-chromatid exchange (SCE) in vitro, Assay Code: SC2+D, Dose Response: With dose response, Evaluation Type: Evaluation A (Pre-1980)): active; positive | mutagenic call (Species/Cell Type: Nonhuman, Assay Type: Sister-chromatid exchange (SCE) in vivo, Assay Code: SC3+D, Dose Response: With dose response, Evaluation Type: Evaluation A (Pre-1980)): active; positive | mutagenic call (Species/Cell Type: Rabbit, Sex: Male, Assay Type: Sperm morphology, Assay Code: SPRT, Evaluation Type: Evaluation A (Pre-1980)): no conclusion | mutagenic call (Species/Cell Type: Rat primary hepatocytes, Assay Type: Unscheduled DNA synthesis (UDS) in vitro, DNA effects, Assay Code: UDP+, Evaluation Type: Evaluation A (Pre-1980)): active; positive | mutagenic call (Species/Cell Type: Rodents, Sex: Male, Assay Type: Dominant lethal test, Assay Code: DLT+D, Dose Response: With dose response, Evaluation Type: Evaluation A (Pre-1980)): active; positive | mutagenic call (Species/Cell Type: Saccharomyces cerevisiae, Assay Type: Forward gene mutation, Assay Code: YEF+, Evaluation Type: Evaluation A (Pre-1980)): active; positive | mutagenic call [4]: active; positive | mutagenic call [5]: active; positive | mutagenic call [6]: active; positive | mutagenic call [7]: active; positive | mutagenic call (Species/Cell Type: Salmonella typhimurium, Assay Type: Forward and reverse gene mutation, body fluid assay, Assay Code: BFU-, Evaluation Type: Evaluation A (Pre-1980)): inactive; negative | mutagenic call (Species/Cell Type: Schizosaccharomyces pombe, Assay Type: Forward gene mutation, Assay Code: YEY+, Evaluation Type: Evaluation A (Pre-1980)): active; positive | mutagenic call (Species/Cell Type: Schizosaccharomyces pombe, Assay Type: Reverse gene mutation, Assay Code: YEZ+, Evaluation Type: Evaluation A (Pre-1980)): active; positive | mutagenic call (Species/Cell Type: Syrian hamster embryo (SA7/SHE) cells, Assay Type: Cell transformation, viral enhanced, Assay Code: CT7+, Evaluation Type: Evaluation A (Pre-1980)): active; positive | mutagenic call (Species/Cell Type: Syrian hamster embryo (SHE) cells, Assay Type: Cell transformation, focus assay, Assay Code: CTF+, Evaluation Type: Evaluation A (Pre-1980)): active; positive | mutagenic call (Species/Cell Type: Vicia faba, Assay Type: Chromosome aberrations, Assay Code: VIC+D, Dose Response: With dose response, Evaluation Type: Evaluation A (Pre-1980)): active; positive

N/C=N/O
mutagenic call [1]: active; positive

CCCCCCCCCCCCCC(=O)N(O)c1ccc2c(c1)Cc1ccccc1-2
mutagenic call (Species/Cell Type: Human diploid fibroblasts, Assay Type: Unscheduled DNA synthesis (UDS) in vitro, DNA effects, Assay Code: UDH-, Evaluation Type: Evaluation A (Pre-1980)): inactive; negative | mutagenic call [7]: active; positive

ClC=C(Cl)Cl
mutagenic call (Species/Cell Type: Drosophila melanogaster, Assay Type: Sex-linked recessive lethal gene mutation, Assay Code: SRL-, Evaluation Type: Evaluation A (Pre-1980)): inactive; negative | mutagenic call (Species/Cell Type: Fischer rat embryo (RLV/1706) cells, Assay Type: Cell transformation, viral enhanced, Assay Code: CTR+, Evaluation Type: Evaluation A (Pre-1980)): active; positive | mutagenic call (Species/Cell Type: Mammalian polychromatic erythrocytes, Assay Type: Micronucleus test, chromosome aberrations, Assay Code: MNT+, Evaluation Type: Evaluation B (Post-1980)): active; positive | mutagenic call [2]: active; positive | mutagenic call [3]: active; positive | call (Species/Cell Type: Nonhuman, Assay Code: CCG+L, Evaluation Type: Evaluation A (Pre-1980)): active; positive | mutagenic call (Species/Cell Type: Nonhuman, Assay Type: Sister-chromatid exchange (SCE) in vitro, Assay Code: SC2T, Evaluation Type: Evaluation B (Post-1980)): no conclusion | mutagenic call (Species/Cell Type: Saccharomyces cerevisiae, Assay Type: Forward and reverse gene mutation, mitotic recombination and gene conversion, host-mediated assay, Assay Code: HME+, Evaluation Type: Evaluation A (Pre-1980)): active; positive | mutagenic call [4]: active; positive | mutagenic call [5]: active; positive | mutagenic call [6]: active; positive | mutagenic call (Species/Cell Type: Salmonella typhimurium (one or more of the five standard strains: TA98, TA100, TA1535, TA1537, and TA1538), Assay Type: Histidine reverse gene mutation, Ames assay, Assay Code: SALT, Evaluation Type: Evaluation A (Pre-1980)): no conclusion | mutagenic call (Species/Cell Type: Tradescantia species, Assay Type: Gene mutation, Assay Code: TRM+, Evaluation Type: Evaluation A (Pre-1980)): active; positive

CN1C[C@H](C(=O)N[C@]2(C)O[C@@]3(O)[C@@H]4CCCN4C(=O)[C@H](Cc4ccccc4)N3C2=O)C=C2c3cccc4[nH]cc(c34)C[C@H]21
mutagenic call (Species/Cell Type: Rodents, Sex: Male, Assay Type: Dominant lethal test, Assay Code: DLT+, Evaluation Type: Evaluation A (Pre-1980)): active; positive

Cc1cccc2ncccc12
mutagenic call (Species/Cell Type: Salmonella typhimurium (one or more of the five standard strains: TA98, TA100, TA1535, TA1537, and TA1538), Assay Type: Histidine reverse gene mutation, Ames assay, Assay Code: SAL+*, Activation: With metabolic activation, Evaluation Type: Evaluation A (Pre-1980)): active; positive

Reference: PubChem BioAssay AID1259408 (Genetic Toxicology Data Bank (GENE-TOX), 2018)
